Results on eight molecules are retold here after PMC8710044 (Biochemical pharmacology, 2021).

One data set concerns the target T1, CYP2C8 (Homo sapiens, UniProt P10632).
T1 sequence (P10632 1-490): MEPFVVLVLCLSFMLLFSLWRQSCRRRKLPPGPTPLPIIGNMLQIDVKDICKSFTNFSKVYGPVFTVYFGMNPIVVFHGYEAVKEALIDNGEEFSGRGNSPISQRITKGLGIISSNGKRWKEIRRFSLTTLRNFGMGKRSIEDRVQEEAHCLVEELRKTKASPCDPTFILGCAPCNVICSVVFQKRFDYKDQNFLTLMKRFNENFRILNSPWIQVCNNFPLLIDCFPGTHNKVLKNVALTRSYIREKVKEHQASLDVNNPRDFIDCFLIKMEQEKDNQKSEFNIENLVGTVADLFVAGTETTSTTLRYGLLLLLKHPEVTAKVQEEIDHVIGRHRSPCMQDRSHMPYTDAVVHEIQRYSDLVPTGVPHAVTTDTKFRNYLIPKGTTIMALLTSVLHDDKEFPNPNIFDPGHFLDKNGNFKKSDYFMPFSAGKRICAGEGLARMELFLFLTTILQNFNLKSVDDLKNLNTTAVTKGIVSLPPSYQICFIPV
The data set is described as follows: Relative CYP contribution to hepatic bioactivation and detoxification, CYP2C8. The data set is classed as in vitro ADME. The note with it: for Bioactivation Percent: CYP2C8 contribution to total CLbioact of the NSAID; for Detoxification Percent: CYP2C8 contribution to total CLdetox of the NSAID.

Another data set addresses CYP2C9 (Homo sapiens, UniProt P11712). The experiment in a line: Relative CYP contribution to hepatic bioactivation and detoxification, CYP2C9. Type of data set: in vitro ADME. The note with it: for Bioactivation Percent: CYP2C9 contribution to total CLbioact of the NSAID; for Detoxification Percent: CYP2C9 contribution to total CLdetox of the NSAID.
For another data set, the target named is CYP2C19 (Homo sapiens, UniProt P33261). The experiment in a line: Relative CYP contribution to hepatic bioactivation and detoxification, CYP2C19. The data set is classed as in vitro ADME. The following applies: for Bioactivation Percent: CYP2C19 contribution to total CLbioact of the NSAID; for Detoxification Percent: CYP2C19 contribution to total CLdetox of the NSAID.

For a further data set, the target named is CYP3A4 (Homo sapiens, UniProt P08684). The data set is described as follows: Relative CYP contribution to hepatic bioactivation and detoxification, CYP3A4. The following applies: for Bioactivation Percent: CYP3A4 contribution to total CLbioact of the NSAID; for Detoxification Percent: CYP3A4 contribution to total CLdetox of the NSAID. The data set is classed as in vitro ADME.

Substrate in data set [1]: Cc1c(Cl)cccc1Nc1ccccc1C(=O)O
The experiment in a line: cells, lysate or membranes named. The note with it: other: CYP2C9, path 1, 2, 95% CI in parentheses, pH 7.4.

Substrate in data set [2]: Cc1ccc(Cl)c(Nc2ccccc2C(=O)O)c1Cl
The data set is described as follows: cells, lysate or membranes named. The following applies: other: CYP2C9; metabolite M9, path 4; 95% CI in parentheses; pH 7.4.

Substrate in data set [3]: Cc1ccc(Nc2c(F)cccc2Cl)c(CC(=O)O)c1
The experiment in a line: cells, lysate or membranes named. The following applies: other: CYP2C9; adduct Unk; 95% CI in parentheses; pH 7.4.

Substrate in data set [4]: Cc1cccc(Nc2ccccc2C(=O)O)c1C
The experiment in a line: cells, lysate or membranes named. The following applies: other: CYP2C9, path 1, 2, 95% CI in parentheses, pH 7.4.

Substrate in data set [5]: O=C(O)COC(=O)Cc1ccccc1Nc1c(Cl)cccc1Cl
The data set is described as follows: cells, lysate or membranes named. The following applies: other: CYP2C9, 95% CI in parentheses, pH 7.4.

Substrate in data set [6]: Cc1cccc(Nc2ccccc2C(=O)O)c1C
The experiment in a line: Steady-state bioactivation kinetics. Type of data set: in vitro ADME, human. The note with it: other: CYP2C8, path 1, 2, 95% CI in parentheses, pH 7.4.

Substrate in data set [7]: O=C(O)COC(=O)Cc1ccccc1Nc1c(Cl)cccc1Cl
The data set is described as follows: Steady-state bioactivation kinetics. The data set is classed as in vitro ADME, human. The note with it: other: CYP2C8, 95% CI in parentheses, pH 7.4.

Substrate in data set [8]: Cc1cccc(Nc2ccccc2C(=O)O)c1C
The experiment in a line: Steady-state kinetics of overall NSAID metabolism. The data set is classed as in vitro ADME, human. The following applies: other: overall metabolism (depletion) by CYP2C8; 95% CI in parentheses; pH 7.4.

Substrate in data set [9]: O=C(O)COC(=O)Cc1ccccc1Nc1c(Cl)cccc1Cl
The data set is described as follows: Steady-state kinetics of overall NSAID metabolism. Type of data set: in vitro ADME, human. The note with it: other: overall metabolism (depletion) by CYP2C8; 95% CI in parentheses; pH 7.4.

Chain of CYP2C19 (P33261 whole entry): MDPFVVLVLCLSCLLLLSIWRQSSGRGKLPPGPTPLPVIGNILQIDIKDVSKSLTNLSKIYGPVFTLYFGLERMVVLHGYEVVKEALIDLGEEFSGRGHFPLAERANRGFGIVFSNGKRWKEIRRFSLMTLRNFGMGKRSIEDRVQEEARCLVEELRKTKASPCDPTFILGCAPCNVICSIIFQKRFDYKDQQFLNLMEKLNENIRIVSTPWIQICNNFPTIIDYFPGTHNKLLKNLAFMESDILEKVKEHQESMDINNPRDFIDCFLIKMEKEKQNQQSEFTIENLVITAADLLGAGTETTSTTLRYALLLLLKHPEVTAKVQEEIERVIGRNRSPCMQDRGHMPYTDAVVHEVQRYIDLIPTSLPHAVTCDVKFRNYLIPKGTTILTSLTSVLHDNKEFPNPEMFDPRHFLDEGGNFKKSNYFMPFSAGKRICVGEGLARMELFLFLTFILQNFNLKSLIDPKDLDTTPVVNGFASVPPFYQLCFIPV
Chain of CYP3A4 (P08684 whole entry): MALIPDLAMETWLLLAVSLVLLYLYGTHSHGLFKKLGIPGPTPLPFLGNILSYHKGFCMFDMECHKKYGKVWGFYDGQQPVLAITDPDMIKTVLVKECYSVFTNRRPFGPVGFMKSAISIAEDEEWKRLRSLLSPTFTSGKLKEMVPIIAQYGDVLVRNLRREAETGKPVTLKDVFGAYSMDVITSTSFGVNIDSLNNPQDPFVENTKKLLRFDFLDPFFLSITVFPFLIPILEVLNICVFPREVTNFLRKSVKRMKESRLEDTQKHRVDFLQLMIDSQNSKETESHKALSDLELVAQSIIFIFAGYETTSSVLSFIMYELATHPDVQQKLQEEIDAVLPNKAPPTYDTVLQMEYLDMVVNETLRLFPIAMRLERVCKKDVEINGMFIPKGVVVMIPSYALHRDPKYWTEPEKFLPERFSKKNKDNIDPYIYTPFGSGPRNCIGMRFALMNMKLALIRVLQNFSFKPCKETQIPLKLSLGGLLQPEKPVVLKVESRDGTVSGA

On to `O=C(O)COC(=O)Cc1ccccc1Nc1c(Cl)cccc1Cl` [ACE, aceclofenac], for which the “Bioactivation Percent” value on CYP2C8 is 2.5%; on CYP2C9, 94.3%; on CYP2C19, 2.0%; at CYP3A4 it was 1.2%. For the same molecule, the “Detoxification Percent” value on CYP2C8 is listed as 7.3%; on CYP2C9 it was 30.7%; at CYP2C19, 1.6%; on CYP3A4, 60.4%.

On to `Cc1c(Cl)cccc1Nc1ccccc1C(=O)O` [TOL, tolfenamic acid], for which the “Bioactivation Percent” value on CYP2C9 was found to be 72.8%; at CYP2C19, 2.0%; on CYP3A4, 25.2%. Moreover, the “Detoxification Percent” value on CYP2C9 stood at 35.5%; at CYP2C19, 3.6%; on CYP3A4, 60.9%.

`Cc1ccc(Cl)c(Nc2ccccc2C(=O)O)c1Cl` [MEC, meclofenamic acid]: the “Bioactivation Percent” value at CYP2C9 came out at 55.7%; at CYP2C19 it was 19.6%; on CYP3A4, 24.7%. Further, the “Detoxification Percent” value at CYP2C9 is 36.5%; on CYP2C19 it was 1.9%; at CYP3A4, 61.6%.

`Cc1cccc(Nc2ccccc2C(=O)O)c1C` [MEF, mefenamic acid]: the “Bioactivation Percent” value came out at 1.4% at CYP2C8, 91.4% on CYP2C9, 1.2% at CYP2C19 and 6.0% on CYP3A4. Also, the “Detoxification Percent” value is recorded as 4.6% at CYP2C8, 36.9% on CYP2C9, 2.1% at CYP2C19 and 56.4% on CYP3A4.

For `Cc1ccc(Nc2c(F)cccc2Cl)c(CC(=O)O)c1` [LUM, lumiracoxib], the “Bioactivation Percent” value on CYP2C9 is recorded as 95.8%; on CYP2C19, 0.5%; at CYP3A4 it was 3.7%. Besides, the “Detoxification Percent” value came to 23.4% at CYP2C9, 8.6% at CYP2C19 and 68.0% on CYP3A4.

As to `O=C(O)c1ccccc1Nc1cccc(C(F)(F)F)c1` [FLU, flufenamic acid], the “Bioactivation Percent” value at CYP2C9 was 42.3%; on CYP2C19, 1.7%; at CYP3A4, 55.9%. The “Detoxification Percent” value at CYP2C9 is 27.6%; on CYP2C19, 3.4%; on CYP3A4 it was 69.0%.

B1: CYP2C9 (Homo sapiens) (protein)
chain: MDSLVVLVLCLSCLLLLSLWRQSSGRGKLPPGPTPLPVIGNILQIGIKDISKSLTNLSKVYGPVFTLYFGLKPIVVLHGYEAVKEALIDLGEEFSGRGIFPLAERANRGFGIVFSNGKKWKEIRRFSLMTLRNFGMGKRSIEDRVQEEARCLVEELRKTKASPCDPTFILGCAPCNVICSIIFHKRFDYKDQQFLNLMEKLNENIKILSSPWIQICNNFSPIIDYFPGTHNKLLKNVAFMKSYILEKVKEHQESMDMNNPQDFIDCFLMKMEKEKHNQPSEFTIESLENTAVDLFGAGTETTSTTLRYALLLLLKHPEVTAKVQEEIERVIGRNRSPCMQDRSHMPYTDAVVHEVQRYIDLLPTSLPHAVTCDIKFRNYLIPKGTTILISLTSVLHDNKEFPNPEMFDPHHFLDEGGNFKKSKYFMPFSAGKRICVGEALAGMELFLFLTSILQNFNLKSLVDPKNLDTTPVVNGFASVPPFYQLCFIPV
For B1, the Km in data set [1] (metabolite M2/M4a) is 6.5 (5.2–8.0) μM; in data set [1] (metabolite M2/M4b), 6.9 (5.8–8.8) μM; in [2], 5.5 (4.3–7.1) μM; in [3] it was 27.0 (22.4–32.3) μM; in data set [4] (metabolite M2/M4a) it was 17.5 (13.4–22.7) μM; in data set [4] (metabolite M2/M4b) it was 12.9 (10.1–16.5) μM. Further, the Km in data set [5] (adduct Unk) is listed as 7.9 (5.8–10.7) μM; in data set [5] (metabolite M9, path 4), 23.8 (19.4–28.9) μM. Further, the kcat is reported as 15.2 (14.6–15.9) pmol/min/nmol protein in [1] (metabolite M2/M4a); 16.1 (15.6–16.7) pmol/min/nmol protein in data set [1] (metabolite M2/M4b); 5.2 (5.0–5.4) pmol/min/nmol protein in [2]; 23.5 (22.5–24.5) pmol/min/nmol protein in data set [3]; 25.6 (24.2–27.0) pmol/min/nmol protein in data set [4] (metabolite M2/M4a); 35.7 (34.0–37.4) pmol/min/nmol protein in data set [4] (metabolite M2/M4b). The kcat in [5] (adduct Unk) is 10.2 (9.7–10.9) pmol/min/nmol protein; in data set [5] (metabolite M9, path 4), 68.5 (65.0–72.2) pmol/min/nmol protein.

B2: CYP2C8 (Homo sapiens) (protein)
chain: T1 sequence (P10632 1-490)
For B2, the Km in data set [6] (metabolite M2/M4a) is 51.9 µM; in data set [6] (metabolite M2/M4b) it was 75.6 µM; in data set [7] (metabolite M2/M4, path 1, 2), 6.3 µM; in data set [7] (metabolite M6, path 3), 9.4 µM; in [7] (metabolite M9, path 4), 6.7 µM; in data set [8] it was 160 (140–190) μM. Also, in data set [9], the Km is reported as 110 (96–130) μM. The kcat is given as 5.6 (5.5–5.8) pmol/min/nmol protein in data set [6] (metabolite M2/M4a); 5.4 (5.2–5.5) pmol/min/nmol protein in data set [6] (metabolite M2/M4b); 1.4 (1.3–1.5) pmol/min/nmol protein in data set [7] (metabolite M2/M4, path 1, 2); 4.0 (3.9–4.1) pmol/min/nmol protein in data set [7] (metabolite M6, path 3); 1.7 (1.6–1.8) pmol/min/nmol protein in data set [7] (metabolite M9, path 4); 2390 (2230–2560) pmol/min/nmol protein in data set [8]. In addition, in [9], the kcat is given as 1740 (1640–1850) pmol/min/nmol protein.
